Results published in paper PMC11062899, “De novo development of small cyclic peptides that are orally bioavailable” (Nature Chemical Biology, 2023).
Where “and” joins values, the source holds several entries; their conditions need not be identical. Equal values may be shown once. Read-outs that look alike come from different tables or passages of the source.

Assays:
rat α-thrombin = biological target: T1, rat α-thrombin (Rattus norvegicus, UniProt P18292); assay: Protease inhibition, Ki for rat α-thrombin (fluorogenic substrate Z-Gly-Gly-Arg-AMC); type: biochemical; settings: for slope normalized to DMSO, rat alpha thrombin inhibition / Rat alpha thrombin inhibition, slope normalized to DMSO: replicates R1-R3
T1 construct: rat α-thrombin (Molecular Innovations) were used at final concentrations of 2 nM and 3 nM; purchased Molecular Innovations
In short: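 Ki derived through Cheng–Prusoff from IC50s (four-parameter logistic fit) against activity of peptide-free controls. Product fluorescence was read every 3 min over 30 min at 25 °C, substrate Z-Gly-Gly-Arg-AMC at 50 μM. Enzyme was 2 nM human or 3 nM rat α-thrombin, pH 7.4 buffer.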

porcine pepsin = biological target: T2, porcine pepsin (Sus scrofa, UniProt P00791); assay: Peptide stability in simulated gastric fluid (SGF); type: in vitro ADME; settings: pig, simulated gi fluid; 8 h, 37 °C, pH 1.2; read-out: Proteolytic stability: SGF (8 h) % remaining
T2 construct: 0.32 g of porcine pepsin (Sigma-Aldrich, P7125) was dissolved under gentle agitation; purchased Sigma-Aldrich P7125
In short: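 Peptide from a 1 mM DMSO stock was added to fluid pre-warmed at 37 °C. SGF was pH 1.2 NaCl with porcine pepsin (0.32 g per 100 ml), and SIF was pH 6.8 potassium phosphate with porcine pancreatin (1 g per 100 ml). Supernatant peptide was quantified by LC–MS, with residual expressed as T1/T0.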

[1] = Passive artificial membrane permeability (PAMPA);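 as to Permeability% Average: top well sample relative to theoretical equilibrium sample by TIC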
[2] = Metabolic stability in rat liver microsomes (RLMs); settings: for TIC value of compound, metabolic stability RLM: replicates R1-R3; for microsomal CLint / half-life: rat, microsomes

T2 sequence (P00791 60-385): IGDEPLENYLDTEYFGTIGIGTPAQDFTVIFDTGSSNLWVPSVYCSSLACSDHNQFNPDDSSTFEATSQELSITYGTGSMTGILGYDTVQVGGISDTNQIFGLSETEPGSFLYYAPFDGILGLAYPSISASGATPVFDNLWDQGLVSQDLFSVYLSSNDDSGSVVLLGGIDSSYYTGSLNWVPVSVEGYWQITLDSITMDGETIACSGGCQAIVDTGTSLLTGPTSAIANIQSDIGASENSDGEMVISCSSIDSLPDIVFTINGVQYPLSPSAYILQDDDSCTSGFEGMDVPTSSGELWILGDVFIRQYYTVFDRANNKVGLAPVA

- slope normalized to DMSO, rat alpha thrombin inhibition (rat α-thrombin; peptide 2.50E+01 uM): 4.6 and 8.1 and 4.9
- slope normalized to DMSO, rat alpha thrombin inhibition (rat α-thrombin; peptide 3.05E-03 uM): 90.9 and 88.2 and 90.2
- slope normalized to DMSO, rat alpha thrombin inhibition (rat α-thrombin; peptide 3.12E+00 uM): 7.5 and 10.1 and 7.1
- slope normalized to DMSO, rat alpha thrombin inhibition (rat α-thrombin; peptide 3.81E-04 uM): 96.2 and 101.3 and 91.7
- slope normalized to DMSO, rat alpha thrombin inhibition (rat α-thrombin; peptide 3.91E-01 uM): 12.4 and 9.5 and 6.1
- slope normalized to DMSO, rat alpha thrombin inhibition (rat α-thrombin; peptide 4.77E-05 uM): 105.1 and 89.9 and 85.4
- slope normalized to DMSO, rat alpha thrombin inhibition (rat α-thrombin; peptide 4.88E-02 uM): 32.8 and 33.4 and 28.7
- slope normalized to DMSO, rat alpha thrombin inhibition (rat α-thrombin; peptide 5.00E+01 uM): 3.1 and 5.6 and 0.5
- slope normalized to DMSO, rat alpha thrombin inhibition (rat α-thrombin; peptide 6.10E-03 uM): 72.5 and 78.4 and 84.7
- slope normalized to DMSO, rat alpha thrombin inhibition (rat α-thrombin; peptide 6.25E+00 uM): 7.7 and -0.5
- slope normalized to DMSO, rat alpha thrombin inhibition (rat α-thrombin; peptide 7.63E-04 uM): 95.8 and 97.3 and 89.3
- slope normalized to DMSO, rat alpha thrombin inhibition (rat α-thrombin; peptide 7.81E-01 uM): 10.1 and 10.3 and 8.9
- slope normalized to DMSO, rat alpha thrombin inhibition (rat α-thrombin; peptide 9.54E-05 uM): 96.1 and 92.0 and 94.2
- slope normalized to DMSO, rat alpha thrombin inhibition (rat α-thrombin; peptide 9.77E-02 uM): 27.3 and 26.5 and 22.9
- Rat alpha thrombin inhibition, slope normalized to DMSO (rat α-thrombin; peptide concentration 1.00E+02 uM): 5.4 and 5.2 and 4.3
- Rat alpha thrombin inhibition, slope normalized to DMSO (rat α-thrombin; peptide concentration 1.19E-05 uM): 102.6 and 102.2 and 91.2
- Rat alpha thrombin inhibition, slope normalized to DMSO (rat α-thrombin; peptide concentration 1.22E-02 uM): 54.9 and 61.5 and 61.2
- Rat alpha thrombin inhibition, slope normalized to DMSO (rat α-thrombin; peptide concentration 1.25E+01 uM): 7.2 and 11.2 and 5.0
- Rat alpha thrombin inhibition, slope normalized to DMSO (rat α-thrombin; peptide concentration 1.53E-03 uM): 90.8 and 92.4 and 84.4
- Rat alpha thrombin inhibition, slope normalized to DMSO (rat α-thrombin; peptide concentration 1.56E+00 uM): 8.6 and 7.9 and 7.3
- Rat alpha thrombin inhibition, slope normalized to DMSO (rat α-thrombin; peptide concentration 1.91E-04 uM): 101.3 and 100.0 and 99.0
- Rat alpha thrombin inhibition, slope normalized to DMSO (rat α-thrombin; peptide concentration 1.95E-01 uM): 18.2 and 17.7 and 18.1
- Rat alpha thrombin inhibition, slope normalized to DMSO (rat α-thrombin; peptide concentration 2.38E-05 uM): 104.9 and 102.6 and 101.9
- Rat alpha thrombin inhibition, slope normalized to DMSO (rat α-thrombin; peptide concentration 2.44E-02 uM): 50.2 and 48.9 and 44.8
- Rat alpha thrombin inhibition, slope normalized to DMSO (rat α-thrombin; peptide concentration 2.50E+01 uM): 4.6 and 8.1 and 4.9
- Rat alpha thrombin inhibition, slope normalized to DMSO (rat α-thrombin; peptide concentration 3.05E-03 uM): 90.9 and 88.2 and 90.2
- Rat alpha thrombin inhibition, slope normalized to DMSO (rat α-thrombin; peptide concentration 3.12E+00 uM): 7.5 and 10.1 and 7.1
- Rat alpha thrombin inhibition, slope normalized to DMSO (rat α-thrombin; peptide concentration 3.81E-04 uM): 96.2 and 101.3 and 91.7
- Rat alpha thrombin inhibition, slope normalized to DMSO (rat α-thrombin; peptide concentration 3.91E-01 uM): 12.4 and 9.5 and 6.1
- Rat alpha thrombin inhibition, slope normalized to DMSO (rat α-thrombin; peptide concentration 4.77E-05 uM): 105.1 and 89.9 and 85.4
- Rat alpha thrombin inhibition, slope normalized to DMSO (rat α-thrombin; peptide concentration 4.88E-02 uM): 32.8 and 33.4 and 28.7
- Rat alpha thrombin inhibition, slope normalized to DMSO (rat α-thrombin; peptide concentration 5.00E+01 uM): 3.1 and 5.6 and 0.5
- Rat alpha thrombin inhibition, slope normalized to DMSO (rat α-thrombin; peptide concentration 6.10E-03 uM): 72.5 and 78.4 and 84.7
- Rat alpha thrombin inhibition, slope normalized to DMSO (rat α-thrombin; peptide concentration 6.25E+00 uM): 7.7 and -0.5
- Rat alpha thrombin inhibition, slope normalized to DMSO (rat α-thrombin; peptide concentration 7.63E-04 uM): 95.8 and 97.3 and 89.3
- Rat alpha thrombin inhibition, slope normalized to DMSO (rat α-thrombin; peptide concentration 7.81E-01 uM): 10.1 and 10.3 and 8.9
- Rat alpha thrombin inhibition, slope normalized to DMSO (rat α-thrombin; peptide concentration 9.54E-05 uM): 96.1 and 92.0 and 94.2
- Rat alpha thrombin inhibition, slope normalized to DMSO (rat α-thrombin; peptide concentration 9.77E-02 uM): 27.3 and 26.5 and 22.9
- Ki (rat α-thrombin; purified peptide, mean and s.d. of three measurements, read-out: Ki rat α-thrombin): 11.1 ± 1.4 nM
- IC50 (rat α-thrombin; single replicates R1-R3, read-out: Rat alpha thrombin inhibition, IC50): 17.1 nM and 20.2 nM and 23.1 nM
- Ki (rat α-thrombin; single replicates R1-R3, read-out: Rat alpha thrombin inhibition, Ki): 9.46 nM and 11.2 nM and 12.8 nM
- remaining at 8 h (porcine pepsin): 101 ± 12%
- PAMPA permeability: % permeability ([1]; 50 μM, 12–18 h, acceptor concentration relative to equilibrium): 66 ± 19%
- Permeability% (single replicates R1–R3) ([1]; 50 μM, 12 h (Fig. 6d)): 52.91% and 57.15% and 54.20%
- Permeability% Average ([1]; 50 μM, 12 h (Fig. 6d)): 54.8%
- Permeability% (single replicates R1–R3) ([1]; 50 μM, 13 h (Fig. 5d)): 79.02% and 44.84% and 74.28%
- Permeability% Average ([1]; 50 μM, 13 h (Fig. 5d)): 66.0%
- Papp at 50 μM ([1]; PAMPA, pH 7.4): 9.77 ×10⁻⁶ cm/s
- TIC value of compound, metabolic stability RLM ([2]; 0 min): 15121279 (2×) and 12636158
- TIC value of compound, metabolic stability RLM ([2]; 5 min): 12214985 and 10185041 and 10498454
- TIC value of compound, metabolic stability RLM ([2]; 15 min): 8936637 and 6181065 and 6718551
- TIC value of compound, metabolic stability RLM ([2]; 30 min): 4407741 and 2845968 and 2692424
- TIC value of compound, metabolic stability RLM ([2]; 60 min): 749207 and 393357 and 268692
- Half Life (min) in RLMs (single replicates R1–R3) ([2]; Fig. 5e source data): 16.74 min and 14.9 min
- Half Life, RLM ([2]; individual replicates R1-R3): 16.74 min and 14.9 min
- microsomal CLint ([2]; CL (ul/min/mg protein) in RLMs (single replicates R1–R3), Fig. 5e source data): 80.1 µL/min/mg
- microsomal CLint ([2]; Clearance (CL) in RLMs, calculated from half-life, mean and s.d. of three measurements): 85 ± 6 µL/min/mg
- half-life ([2]; Half Life (min) in RLMs (single replicates R1–R3), Fig. 5e source data): 17.3 min
- half-life ([2]; Half Life, RLM, individual replicates R1-R3): 17.3 min
- microsomal CLint ([2]; pH 7.4, CL (ul/min/mg protein) in RLMs Average, Fig. 5e source data): 85.3 µL/min/mg
- half-life ([2]; pH 7.4, Metabolic stability: Half life T1/2 (min), RLMs, mean and SD, three measurements): 16.3 ± 1 min
Structure (SMILES): O=C1C[C@H]2CCCN2C(=O)[C@H](Cc2ccccc2)NC(=O)[C@@H](NC(=O)c2ccc(Cl)s2)CCC=CCCCCN1 [peptide 43]
- CL (ul/min/mg protein) in RLMs (single replicates R1–R3) ([2]; Fig. 5e source data): 82.7957 ul/min/mg protein and 93.0201 ul/min/mg protein and 80.07 ul/min/mg protein and 82.80 ul/min/mg protein and 93.02 ul/min/mg protein
